These results are taken from publication PMC6572996, “Silver(I) Complexes of the Pharmaceutical Agents Metronidazole and 4-Hydroxymethylpyridine: Comparison of Cytotoxic Profile for Potential Clinical Application” (Molecules, 2019).

The subject of data set [1] is Balb/c 3T3 cells. Nature of the data set: Leakage LDH assay (cellular membrane integrity), Balb/c 3T3. In kind it is cell-based, mouse. To be noted: for IC50: Balb/c 3T3, 72 h exposure, mean (n = 3) ± SEM, read-out: Inhibitory concentration IC50, LDH. As to the method: (§1) Data obtained from the measurement of the optical density in these assays were transformed to percentages in relation to the control group, considered to be 100% for the MTT, NRU, and TPC assays and 0% for the LDH assay (Figure 1).
(§2) The human hepatoma cell line (HepG2) was purchased from the American Type Culture Collection (ATCC HB-8065). These cells were cultured in Minimum Essential Medium Eagle (MEME) (ATCC). The murine fibroblast cell line (Balb/c 3T3 clone A31) (gift from Department of Swine Diseases of the National Veterinary Research Institute in Pulawy) was cultured in Dulbecco’s Modified Eagle’s Medium (DMEM) (ATCC). The media were supplemented with 10% BCS (Balb/c 3T3), 10% FBS (HepG2), 1% L-glutamine, and 1% antibiotic solution. The cells were maintained in 75 cm^2 cell culture flasks (Nunc, Roskilde, Denmark) in a humidified incubator, NuAire (Plymouth, MN, USA) at 37 °C, in an atmosphere of 5% CO2. The medium was refreshed every two or three days and the cells were trypsinized by 0.25% trypsin–0.02% EDTA after reaching 70–80% confluence. Single cell suspensions were prepared and adjusted to a density of 2 × 10^5 cells/mL (HepG2) and 5 × 10^4 cells/mL (Balb/c 3T3). The cell suspension was transferred to 96-well plates (100 µL/well) and incubated for 24 h before the exposure to the study compounds.
(§3) The concentration ranges of compounds were chosen according to their solubility and their plasma level. Each compound was dissolved in DMSO. The final concentration of DMSO was 0.1% in the medium. The same final concentrations of the solvent and the 1% Trition-X 100 solution were used as the negative and positive controls, respectively. […] All compound solutions in the medium were freshly prepared and protected from light. […] The concentration range was selected on the basis of results from previous studies. Each concentration was tested in six replicates with three independent experiments. Cytotoxicity was assessed after 72 h of exposure of the cells to the compounds. The medium was not changed during the incubation time.
(§4) The integrity of the plasma membrane was assessed using the test of lactate dehydrogenase (LDH) release, which was monitored using the commercially available Cytotoxicity Detection Kit (LDH) (Roche Diagnostics, Warsaw, Poland). The medium (100 µL/well) without cells was transferred into the corresponding wells of an optically clear 96-well flat bottom microplate and a 100 µl reaction mixture was added to each well. Then, the plates were incubated for 30 min at room temperature in darkness. After that time, a 50 µL/well 1 M HCl was added to stop the reaction. The absorbance was measured at 492 nm in a microplate reader (LabSystems Multiskan RC, Thermo Fisher Scientific, Waltham, MA, USA) using a blank as a reference.
(§5) The results of the tests were expressed as a mean ± SD. The experiments were performed in three independent repetitions. Statistical analysis was performed using GraphPad Prism 5 (San Diego, CA, USA). One-way analysis of variance (ANOVA) followed by Dunnett’s post-hoc test was applied. The 50% inhibition (cytotoxicity) concentrations (IC50) were derived from the dose–response curve plotted with the concentration of the compound (X-axis) vs. cell viability percent (Y-axis). The IC50 values were calculated by GraphPad Prism 5 software (San Diego, CA, USA). Statistical comparisons among IC50 values were performed by the analysis of variance (ANOVA) followed by the Tukey test. Values of p ≤ 0.05 were considered statistically significant.

Data set [2] has as its system HepG2 cells. Description: MTT assay (mitochondrial activity), HepG2. The data set is classed as cell-based, human. To be noted: for IC50: HepG2, 72 h exposure, mean (n = 3) ± SEM, read-out: Inhibitory concentration IC50, MTT. The method, then:
as §1, §2, §3
(§6) The metabolic activity of living cells was assessed by measuring the activity of dehydrogenases. After incubation of the cells with the compounds, a 10 μL portion of the MTT solution (5 mg/ml in PBS) was added to each well of the 96-well plates and incubated. After 3 h, the MTT solution was removed and the intracellular formazan crystals were dissolved in 100 µl DMSO. The plate was shaken for 15 min at room temperature and transferred to a microplate reader (LabSystems Multiskan RC, Thermo Fisher Scientific, Waltham, MA, USA) to measure the absorbance at 570 nm, using blanks as a reference. Cytotoxicity was expressed as a percentage of the negative control (0.1% DMSO).
as §5
For orientation: Formazan colour is commonly taken as a measure of viable cells.

Data set [3] deals with murine melanoma (B16) cell line. More on the design: method as in PMID 26828469. Conditions: cited from earlier work.
For data set [4], the system named is Balb/c 3T3 cells. Description: TPC assay (total protein content), Balb/c 3T3. Conditions: for IC50: Balb/c 3T3, 72 h exposure, mean (n = 3) ± SEM, read-out: Inhibitory concentration IC50, TPC. The data set is classed as cell-based, mouse. The method, then:
as §1, §2, §3
(§7) The assay was based upon staining total cellular protein (proliferation). After incubation, the medium containing the compound was removed and 100 µL of Coomassie Brilliant Blue R-250 dye were added to each well. The plate was shaken for 10 min. Then, the stain was removed and the cells were rinsed twice with 100 µL of washing solution (glacial acetic acid/ethanol/water). After that, a 100 µL portion of the desorbing solution (1 M potassium acetate) was added and plates were shaken again for 10 min. The absorbance was measured at 595 nm in a microplate reader (LabSystems Multiskan RC, Thermo Fisher Scientific, Waltham, MA, USA) using a blank as a reference. Cytotoxicity was expressed as a percentage of the negative control (0.1% DMSO).
as §5

Data set [5] deals with Balb/c 3T3 cells. Nature of the data set: NRU assay (lysosomal activity), Balb/c 3T3. In kind it is cell-based, mouse. Conditions: for IC50: Balb/c 3T3, 72 h exposure, mean (n = 3) ± SEM, read-out: Inhibitory concentration IC50, NRU. The method, then:
as §1, §2, §3
(§8) The assay, based on the staining of living cells by neutral red, was performed according to the protocol described by Borenfreund and Puerner. After incubation, the medium containing the compound was removed and the cells were washed with PBS. Then, a 100 µL/well of NR solution (50 µg/mL) was added for 3 h. After that time, the cells were washed with PBS. The dye from viable cells was released by extraction with a mixture of acetic acid, ethanol, and water. After 10 min of shaking, the absorbance of the dissolved NR was measured at 540 nm in a microplate reader (LabSystems Multiskan RC, Thermo Fisher Scientific, Waltham, MA, USA) using a blank as a reference. Cytotoxicity was expressed as a percentage of the negative control (0.1% DMSO).
as §5

The test system of data set [6] is HepG2 cells. Nature of the data set: Leakage LDH assay (cellular membrane integrity), HepG2. In kind it is cell-based, human. Conditions: for IC50: HepG2, 72 h exposure, mean (n = 3) ± SEM, read-out: Inhibitory concentration IC50, LDH. As to the method:
as §1, §2, §3, §4, §5

In data set [7] the test system is Balb/c 3T3 cells. Description: MTT assay (mitochondrial activity), Balb/c 3T3. The data set is classed as cell-based, mouse. Conditions: for Lowest concentration with significant (p ≤ 0.05) inhibition of mitochondrial activity (MTT): Balb/c 3T3, 72 h, vs negative control 0.1% DMSO; for IC50: Balb/c 3T3, 72 h exposure, mean (n = 3) ± SEM, read-out: Inhibitory concentration IC50, MTT. The method, then: as §1, §2, §3, §6, §5

Data set [8] concerns HepG2 cells. Nature of the data set: NRU assay (lysosomal activity), HepG2. In kind it is cell-based, human. Conditions: for Lowest concentration with significant (p ≤ 0.05) inhibition of lysosomal activity (NRU): HepG2, 72 h, vs negative control 0.1% DMSO; for IC50: HepG2, 72 h exposure, mean (n = 3) ± SEM, read-out: Inhibitory concentration IC50, NRU. As to the method: as §1, §2, §3, §8, §5

Data set [9] relates to HepG2 cells. Description: TPC assay (total protein content), HepG2. In kind it is cell-based, human. Conditions: for Lowest concentration with significant (p ≤ 0.05) decrease of total protein content (TPC): HepG2, 72 h, vs negative control 0.1% DMSO; for IC50: HepG2, 72 h exposure, mean (n = 3) ± SEM, read-out: Inhibitory concentration IC50, TPC. The method, then:
as §1, §2, §3, §7, §5

The subject of a further data set is HeLa cell lines. Further details: method as in PMID 19836347. To be noted: cited from earlier work.
A further data set relates to H-ras 5RP7 cells. To be noted: 24 h exposure; cited from earlier work.
Setting [10] is: Balb/c 3T3, 72 h, vs negative control 0.1% DMSO.
[11] abbreviates: HepG2, 72 h, vs negative control 0.1% DMSO.

On to `Cc1ncc([N+](=O)[O-])n1CCO` [Metronidazole], for which the IC50 in the data set with Balb/c 3T3 cells [1] (Mus musculus, BALB/c3T3) is more than 146 µM; with HepG2 cells [2] (Homo sapiens), more than 146 µM; in the data set on Balb/c 3T3 cells [4] (Mus musculus, BALB/c3T3), more than 146 µM; in the data set with Balb/c 3T3 cells [5] (Mus musculus, BALB/c3T3), more than 146 µM; in the data set with HepG2 cells [6] (Homo sapiens), more than 146 µM; in the data set on Balb/c 3T3 cells [7] (Mus musculus, BALB/c3T3), more than 146 µM. Besides, the IC50 with HepG2 cells [8] (Homo sapiens) and with HepG2 cells [9] (Homo sapiens) was more than 146 µM throughout. The “Cytotoxicity in B16 cell line” value in data set [3] (same observation as in this study) is given as “poorly cytotoxic”. The “Lowest concentration with significant (p ≤ 0.05) inhibition of mitochondrial activity (MTT)” value in the data set with Balb/c 3T3 cells [7] is given as 36 µM. Further, in the data set on HepG2 cells [8], the “Lowest concentration with significant (p ≤ 0.05) inhibition of lysosomal activity (NRU)” value was determined as 146 µM. The “Lowest concentration with significant (p ≤ 0.05) decrease of total protein content (TPC)” value with HepG2 cells [9] is 8.8 µM.
As to `O=[N+]([O-])[O-].[Ag+]` [Silver nitrate], the “Lowest concentration with significant (p ≤ 0.05) disintegration of the cellular membrane (LDH)” value in the data set with Balb/c 3T3 cells [1] (setting [10]) came out at 2.2 µM; in the data set with HepG2 cells [6] (setting [11]) it was 4.4 µM. Further, the IC50 was 3.12 ± 0.06 µM in the data set with Balb/c 3T3 cells [1]; 2.89 µM in the data set with HeLa cell lines; 6.48 ± 1.6 µM in the data set with HepG2 cells [2]; 9.74 µM in data set [3] (72 h incubation); 6.75 µM with H-ras 5RP7 cells; 2.59 ± 1.3 µM in the data set on Balb/c 3T3 cells [4]. Besides, the IC50 in the data set with Balb/c 3T3 cells [5] is 2.94 ± 1.06 µM; in the data set on HepG2 cells [6] it was 3.47 ± 0.24 µM; in the data set on Balb/c 3T3 cells [7], 2.13 ± 0.88 µM; in the data set on HepG2 cells [8], 6.18 ± 1.41 µM; with HepG2 cells [9] it was 60.3 ± 8.1 µM. Further, the “Lowest concentration with significant (p ≤ 0.05) inhibition of mitochondrial activity (MTT)” value was 4.4 µM in the data set on HepG2 cells [2] (setting [11]) and 2.2 µM in the data set with Balb/c 3T3 cells [7]. The “Lowest concentration with significant (p ≤ 0.05) decrease of total protein content (TPC)” value with Balb/c 3T3 cells [4] (setting [10]) came to 2.2 µM; in the data set with HepG2 cells [9], 8.8 µM. Moreover, the results for the “Lowest concentration with significant (p ≤ 0.05) inhibition of lysosomal activity (NRU)” value in the data set with Balb/c 3T3 cells [5] (setting [10]) and with HepG2 cells [8] were 2.2 µM and 4.4 µM, respectively.
